# Results published in patent US20140303092A1 (CHIMERIX, INC., priority 2011, published 2014).
# “And” between values parts separate entries of the source, which are not always exact repeats. Equal entries are not always repeated.
# System: CMV
# Test: Study HDP-CDV-201: prevention or control of CMV infection in R+ HSCT recipients (efficacy)
# Type: in vivo, human (adult allogeneic HSCT recipients)
# Details: for Time to CMV DNAemia (≧100 copies/mL), Mean / Number of Subjects who had CMV DNAemia (≧100 copies/mL) by the end of study / Time to CMV DNAemia (≧100 copies/mL), Median: CMV DNA negative at baseline; for Difference (HDP-CDV minus placebo) in rate of CMV DNAemia ≧1,000 copies/mL / Rate of CMV DNAemia ≧1,000 copies/mL during the treatment period: CMV modified strata: positive; for Discontinuation: Emergence of CMV disease / Discontinuation: Initiation of alternate CMV therapy: active treatment period
# Procedure: The clinical study of the current invention (HDP-CDV-201) was a 9-11 week randomized, placebo-controlled, double-blind, dose-escalation study (40 mg weekly [QW], 100 mg QW, 200 mg QW, 200 mg twice-weekly [BIW], and 100 mg BIW) of HDP-CDV for the prevention of CMV infection post-HCT. Treatment was initiated at the time of engraftment and continued until Week 13 post-HCT. HDP-CDV, at various doses, was active and well tolerated in the prevention CMV infection or disease.
# Clinical Studies of HDP-CDV were performed and described in detail in the following Examples. For example, HDP-CDV-201 is a placebo-controlled, dose-escalating trial in HSCT CMV (R+) recipients, evaluating the ability of HDP-CDV to prevent or control CMV infection was carried out. Five cohorts were established in which participants or subjects received either placebo or the HDP-CDV orally, in doses ranging from 40 mg weekly (QW) to 200 mg twice weekly (BIW). Subjects who were post-HSCT were enrolled at the time of engraftment and randomized to HDP-CDV or placebo (3 to 1 ratio) and received blinded therapy until approximately 100 day post-transplantation. HDP-CDV doses were 40 mg QW, 100 mg QW, 200 mg QW, 200 mg BIW and 100 mg BIW. Escalation to the next dose was decided by the data monitoring committee after review of the safety data from the previous Cohort. Subjects who developed CMV disease or CMV infection requiring pre-emptive therapy with local standard of care were discontinued from blinded therapy and followed for 4 weeks. Subjects who completed treatment with blinded therapy were followed for 8 weeks post-therapy.
# The primary endpoint was defined as the incidence of CMV disease at any time during treatment or CMV DNAemia≧200 copies/mL at the end of treatment. All subjects who received at least one dose of drug/placebo and had at least one efficacy evaluation post baseline were included in the primary analysis, regardless of their CMV DNAemia status (negative or positive) at baseline (mITT population). Results for the pooled HDP-CDV Cohorts and for each Cohort separately were analyzed versus that for pooled placebo.
# The primary efficacy measure for this study was treatment failure, defined as the occurrence of CMV infection, defined as CMV DNAemia>200 copies/mL at the End of Treatment or diagnosis of CMV disease at any time during the treatment period. For the analysis, the following definitions apply:
# For subjects who completed the treatment phase of the study, the End of Treatment was defined as the latest assessment from date of the last dose of study drug and up to 7 days for QW dosing, or the date of the last dose of study drug and up to 4 days for BIW dosing. For subjects who discontinued during the treatment phase of the study, the End of Treatment was defined as the date of the last dose of study drug.
# The time to event was defined as the period between FDD and date of first occurrence of the event of interest (inclusive). The events included onset of CMV DNAemia, onset of CMV disease, and discontinuation because of excluded anti-CMV medications. Time to event/onset was derived as (the event/onset date—FDD)+1.
# As detailed in the Statistical Analysis Plan, a modified CMV stratum was defined prior to conducting the statistical analysis based upon polymerase chain reaction (PCR) results from the central laboratory. If any positive CMV DNA value in plasma was collected before the first dose of study drug (including Screening, Pre-dose, (combined Screening/Pre-dose), CMV for stratification, and FDD), then the subject was placed into the modified CMV positive (≧100 copies/mL) stratum, otherwise the subject was in the modified CMV negative stratum. […]
# [1] = 200 mg BIW/QW, modified CMV negative stratum
# [2] = 200 mg BIW, CMV modified strata: negative
# [3] = 200 mg BIW, modified CMV negative stratum
# [4] = 200 mg QW, CMV modified strata: negative
smiles,measurement,setting,value
CCCCCCCCCCCCCCCCOCCCOP(=O)(O)COC(CO)Cn1ccc(N)nc1=O (stereo not drawn) [HDP-CDV],"Time to CMV DNAemia (≧100 copies/mL), Mean","100 mg QW, treatment period, censored values not included",38.8 days
same,Number of Subjects who had CMV DNAemia (≧100 copies/mL) by the end of study,"100 mg QW, whole study period",8
same,"Time to CMV DNAemia (≧100 copies/mL), Mean","100 mg QW, whole study period",53.4 days
same,"Time to CMV DNAemia (≧100 copies/mL), Median","100 mg QW, whole study period",38.5 days
same,"% CMV Event Rate: Incidence of CMV DNAemia >100 copies/mL During Treatment (Fisher analysis, ref 14.3.3.2.1)",[1],4 (18.2%) subjects (%)
same,"% CMV Event Rate: Incidence of CMV DNAemia ≧1,000 copies/mL at any time during treatment",[1],0 subjects (%)
same,Difference (HDP-CDV minus placebo) in infection rate,[2],−16.2%
same,"Difference (HDP-CDV minus placebo) in rate of CMV DNAemia ≧1,000 copies/ml",[2],−31.9%
same,"Rate of CMV DNAemia ≧1,000 copies/ml during the treatment period",[2],0%
same,Rate of CMV Disease or End of Treatment CMV Infection,[2],13.6%
same,"Difference (HDP-CDV minus placebo) in rate of CMV DNAemia ≧1,000 copies/mL",200 mg BIW,−58.3%
same,"Rate of CMV DNAemia ≧1,000 copies/mL during the treatment period",200 mg BIW,25%
same,Rate of CMV Disease or End of Treatment CMV Infection,"200 mg BIW, aGVHD randomization strata: negative",24.1%
same,Difference (HDP-CDV minus placebo) in infection rate,"200 mg BIW, aGVHD strata: negative",−7.9%
same,Discontinuation: Emergence of CMV disease,200 mg BIW,0 Subject n (%)
same,Discontinuation: Initiation of alternate CMV therapy,200 mg BIW,5 (16.7%) Subject n (%)
same,Difference (HDP-CDV minus placebo) in rate of CMV DNAemia ≧1000 copies/mL,"200 mg BIW, mITT",−35.7%
same,Difference (HDP-CDV minus placebo) in rate of CMV disease or end of treatment CMV infection,"200 mg BIW, mITT",−14.0%
same,Subjects Receiving Antiviral Therapy and/or had CMV disease,"200 mg BIW, mITT",5 (16.7%) subjects (%)
same,Subjects without a CMV event,"200 mg BIW, mITT",25 (83.3%) subjects (%)
same,"Time to Antiviral Therapy, Median","200 mg BIW, mITT",15.0 days
same,Rate of CMV Disease or End of Treatment CMV Infection (≧200 copies/ml),"200 mg BIW, mITT, missing=infection",23% and 23.3%
same,Rate of CMV DNAemia ≧1000 copies/mL during the treatment period,"200 mg BIW, mITT, post hoc",7% and 6.7%
same,"Time to Antiviral Therapy, Mean","200 mg BIW, mITT, censored values not included",21.6 days
same,"Subjects Who Had CMV-related Event (CMV disease, CMV DNAemia ≧1,000 c/mL or initiation of anti-CMV treatment)",[3],3 (13.6%) subjects (%)
same,Subjects without a CMV-related event,[3],20 (86.4%) subjects (%)
same,Developed CMV DNAemia (≧100 copies/mL) during the treatment period,"200 mg BIW, plasma CMV DNA negative at baseline, mITT",4 (17.4%) N(%)
same,"Time to CMV DNAemia (≧100 copies/mL), Median","200 mg BIW, treatment period",25.5 days
same,"Time to CMV DNAemia (≧100 copies/mL), Mean","200 mg BIW, treatment period, censored values not included",24.8 days
same,Median Survival Time to CMV DNAemia (Kaplan-Meier),"200 mg BIW, whole study period",130 days
same,Number of Subjects who had CMV DNAemia (≧100 copies/mL) by the end of study,"200 mg BIW, whole study period",9
same,"Time to CMV DNAemia (≧100 copies/mL), Mean","200 mg BIW, whole study period",49.0 days
same,"Time to CMV DNAemia (≧100 copies/mL), Median","200 mg BIW, whole study period",42.0 days
same,Difference (HDP-CDV minus placebo) in infection rate,[4],−9.1%
same,"Difference (HDP-CDV minus placebo) in rate of CMV DNAemia ≧1,000 copies/ml",[4],−25.0%
same,"Rate of CMV DNAemia ≧1,000 copies/ml during the treatment period",[4],6.9%
same,Rate of CMV Disease or End of Treatment CMV Infection,[4],20.7%
same,"Difference (HDP-CDV minus placebo) in rate of CMV DNAemia ≧1,000 copies/mL",200 mg QW,−33.3%
same,"Rate of CMV DNAemia ≧1,000 copies/mL during the treatment period",200 mg QW,50.0%
same,Rate of CMV Disease or End of Treatment CMV Infection,"200 mg QW, aGVHD randomization strata: negative",30.8%
same,Difference (HDP-CDV minus placebo) in infection rate,"200 mg QW, aGVHD strata: negative",−1.3%
same,Discontinuation: Emergence of CMV disease,200 mg QW,0 Subject n (%)
same,Discontinuation: Initiation of alternate CMV therapy,200 mg QW,7 (17.9%) Subject n (%)
same,Difference (HDP-CDV minus placebo) in rate of CMV DNAemia ≧1000 copies/mL,"200 mg QW, mITT",−24.4%
same,Difference (HDP-CDV minus placebo) in rate of CMV disease or end of treatment CMV infection,"200 mg QW, mITT",−6.5%
